Source: the NIST ThermoML archive (doi:10.1021/je800105r)
Numbers after ± are expanded uncertainties.

Assay: activity coefficient (dimensionless); of the first substance listed, at infinite dilution; xn = mol fraction of the nth substance listed
Conditions: Liquid, Chromatography, x1 = 0

SMILES: C=CCCCCC [1-heptene] + CCCCCCCCCCCCCC[P+](CCCCCC)(CCCCCC)CCCCCC.O=S(=O)([N-]S(=O)(=O)C(F)(F)F)C(F)(F)F
- activity coefficient (303.15 K): 1 ± 0.06
- activity coefficient (308.15 K): 1.02 ± 0.06
- activity coefficient (313.15 K): 1.04 ± 0.07
- activity coefficient (318.15 K): 1.09 ± 0.07

SMILES: C#CCCCCC [1-heptyne] + CCCCCCCCCCCCCC[P+](CCCCCC)(CCCCCC)CCCCCC.O=S(=O)([N-]S(=O)(=O)C(F)(F)F)C(F)(F)F
- activity coefficient (303.15 K): 0.59 ± 0.04
- activity coefficient (308.15 K): 0.63 ± 0.04
- activity coefficient (313.15 K): 0.66 ± 0.05
- activity coefficient (318.15 K): 0.7 ± 0.05

SMILES: C#CCCCC [1-hexyne] + CCCCCCCCCCCCCC[P+](CCCCCC)(CCCCCC)CCCCCC.O=S(=O)([N-]S(=O)(=O)C(F)(F)F)C(F)(F)F
- activity coefficient (303.15 K): 0.66 ± 0.05
- activity coefficient (308.15 K): 0.68 ± 0.05
- activity coefficient (313.15 K): 0.71 ± 0.05
- activity coefficient (318.15 K): 0.74 ± 0.05

SMILES: C#CCCCCCC [1-octyne] + CCCCCCCCCCCCCC[P+](CCCCCC)(CCCCCC)CCCCCC.O=S(=O)([N-]S(=O)(=O)C(F)(F)F)C(F)(F)F
- activity coefficient (303.15 K): 0.53 ± 0.04
- activity coefficient (308.15 K): 0.55 ± 0.04
- activity coefficient (313.15 K): 0.58 ± 0.04
- activity coefficient (318.15 K): 0.63 ± 0.04

SMILES: C=CCCC [1-pentene] + CCCCCCCCCCCCCC[P+](CCCCCC)(CCCCCC)CCCCCC.O=S(=O)([N-]S(=O)(=O)C(F)(F)F)C(F)(F)F
- activity coefficient (303.15 K): 0.78 ± 0.05
- activity coefficient (308.15 K): 0.8 ± 0.05
- activity coefficient (313.15 K): 0.82 ± 0.05
- activity coefficient (318.15 K): 0.85 ± 0.05

SMILES: c1ccccc1 [benzene] + CCCCCCCCCCCCCC[P+](CCCCCC)(CCCCCC)CCCCCC.O=S(=O)([N-]S(=O)(=O)C(F)(F)F)C(F)(F)F
- activity coefficient (303.15 K): 0.38 ± 0.03
- activity coefficient (308.15 K): 0.39 ± 0.03
- activity coefficient (313.15 K): 0.4 ± 0.03
- activity coefficient (318.15 K): 0.42 ± 0.04

SMILES: C1CCCCCC1 [cycloheptane] + CCCCCCCCCCCCCC[P+](CCCCCC)(CCCCCC)CCCCCC.O=S(=O)([N-]S(=O)(=O)C(F)(F)F)C(F)(F)F
- activity coefficient (303.15 K): 0.88 ± 0.06
- activity coefficient (308.15 K): 0.91 ± 0.06
- activity coefficient (313.15 K): 0.92 ± 0.06
- activity coefficient (318.15 K): 0.94 ± 0.06

SMILES: C1CCCCC1 [cyclohexane] + CCCCCCCCCCCCCC[P+](CCCCCC)(CCCCCC)CCCCCC.O=S(=O)([N-]S(=O)(=O)C(F)(F)F)C(F)(F)F
- activity coefficient (303.15 K): 0.78 ± 0.05
- activity coefficient (308.15 K): 0.8 ± 0.05
- activity coefficient (313.15 K): 0.82 ± 0.05
- activity coefficient (318.15 K): 0.85 ± 0.05

SMILES: C1CCCC1 [cyclopentane] + CCCCCCCCCCCCCC[P+](CCCCCC)(CCCCCC)CCCCCC.O=S(=O)([N-]S(=O)(=O)C(F)(F)F)C(F)(F)F
- activity coefficient (303.15 K): 0.68 ± 0.05
- activity coefficient (308.15 K): 0.69 ± 0.05
- activity coefficient (313.15 K): 0.71 ± 0.05
- activity coefficient (318.15 K): 0.73 ± 0.05

SMILES: CCO [ethanol] + CCCCCCCCCCCCCC[P+](CCCCCC)(CCCCCC)CCCCCC.O=S(=O)([N-]S(=O)(=O)C(F)(F)F)C(F)(F)F
- activity coefficient (303.15 K): 1.36 ± 0.09
- activity coefficient (308.15 K): 1.33 ± 0.09
- activity coefficient (313.15 K): 1.31 ± 0.09
- activity coefficient (318.15 K): 1.3 ± 0.08

SMILES: CCCCCCC [heptane] + CCCCCCCCCCCCCC[P+](CCCCCC)(CCCCCC)CCCCCC.O=S(=O)([N-]S(=O)(=O)C(F)(F)F)C(F)(F)F
- activity coefficient (303.15 K): 1.26 ± 0.08
- activity coefficient (308.15 K): 1.27 ± 0.08
- activity coefficient (313.15 K): 1.3 ± 0.08
- activity coefficient (318.15 K): 1.33 ± 0.09

SMILES: C=CCCCC [hex-1-ene] + CCCCCCCCCCCCCC[P+](CCCCCC)(CCCCCC)CCCCCC.O=S(=O)([N-]S(=O)(=O)C(F)(F)F)C(F)(F)F
- activity coefficient (303.15 K): 0.88 ± 0.06
- activity coefficient (308.15 K): 0.9 ± 0.06
- activity coefficient (313.15 K): 0.92 ± 0.06
- activity coefficient (318.15 K): 0.97 ± 0.06

SMILES: CCCCCC [hexane] + CCCCCCCCCCCCCC[P+](CCCCCC)(CCCCCC)CCCCCC.O=S(=O)([N-]S(=O)(=O)C(F)(F)F)C(F)(F)F
- activity coefficient (303.15 K): 1.09 ± 0.07
- activity coefficient (308.15 K): 1.1 ± 0.07
- activity coefficient (313.15 K): 1.13 ± 0.07
- activity coefficient (318.15 K): 1.17 ± 0.07

SMILES: CO [methanol] + CCCCCCCCCCCCCC[P+](CCCCCC)(CCCCCC)CCCCCC.O=S(=O)([N-]S(=O)(=O)C(F)(F)F)C(F)(F)F
- activity coefficient (303.15 K): 1.26 ± 0.08
- activity coefficient (308.15 K): 1.24 ± 0.08
- activity coefficient (313.15 K): 1.23 ± 0.08
- activity coefficient (318.15 K): 1.23 ± 0.08

SMILES: C=CCCCCCC [oct-1-ene] + CCCCCCCCCCCCCC[P+](CCCCCC)(CCCCCC)CCCCCC.O=S(=O)([N-]S(=O)(=O)C(F)(F)F)C(F)(F)F
- activity coefficient (303.15 K): 1.11 ± 0.07
- activity coefficient (308.15 K): 1.14 ± 0.07
- activity coefficient (313.15 K): 1.16 ± 0.07
- activity coefficient (318.15 K): 1.21 ± 0.08

SMILES: CCCCCCCC [octane] + CCCCCCCCCCCCCC[P+](CCCCCC)(CCCCCC)CCCCCC.O=S(=O)([N-]S(=O)(=O)C(F)(F)F)C(F)(F)F
- activity coefficient (303.15 K): 1.32 ± 0.09
- activity coefficient (308.15 K): 1.36 ± 0.09
- activity coefficient (313.15 K): 1.4 ± 0.09
- activity coefficient (318.15 K): 1.46 ± 0.1

SMILES: CCCCC [pentane] + CCCCCCCCCCCCCC[P+](CCCCCC)(CCCCCC)CCCCCC.O=S(=O)([N-]S(=O)(=O)C(F)(F)F)C(F)(F)F
- activity coefficient (303.15 K): 0.94 ± 0.06
- activity coefficient (308.15 K): 0.96 ± 0.06
- activity coefficient (313.15 K): 0.99 ± 0.06
- activity coefficient (318.15 K): 1.02 ± 0.06

SMILES: CCCO [propan-1-ol] + CCCCCCCCCCCCCC[P+](CCCCCC)(CCCCCC)CCCCCC.O=S(=O)([N-]S(=O)(=O)C(F)(F)F)C(F)(F)F
- activity coefficient (303.15 K): 1.42 ± 0.09
- activity coefficient (308.15 K): 1.4 ± 0.09
- activity coefficient (313.15 K): 1.39 ± 0.09
- activity coefficient (318.15 K): 1.38 ± 0.09
